Results as given in ChEMBL document CHEMBL1154064, “Synthesis and DNA cleavage activity of 2-hydrazinyl-1,4,5,6-tetrahydropyrimidine containing hydroxy group” (2009).

Experiments:
Nucleic Acid [1] = assay: Binding affinity to Escherichia coli pUC19 DNA assessed as form 2 DNA level at 0.698 mM after 10.70 hrs by agarose gel electrophoresis; assay type: nucleic-acid assay
Nucleic Acid [2] = assay: Binding affinity to Escherichia coli pUC19 DNA assessed as form 1 DNA level at 0.175 mM after 9.07 hrs by agarose gel electrophoresis; assay type: nucleic-acid assay
Nucleic Acid [3] = assay: Binding affinity to Escherichia coli pUC19 DNA assessed as form 2 DNA level at 0.698 mM after 23.80 hrs by agarose gel electrophoresis; assay type: nucleic-acid assay
Nucleic Acid [4] = assay: Binding affinity to Escherichia coli pUC19 DNA assessed as form 1 DNA level at 0.698 mM after 3.72 hrs by agarose gel electrophoresis; assay type: nucleic-acid assay
Nucleic Acid [5] = assay: Binding affinity to Escherichia coli pUC19 DNA assessed as form 2 DNA level at 0.320 mM after 23.12 hrs by agarose gel electrophoresis; assay type: nucleic-acid assay
HL-60 [6] = assay: Growth inhibition of human HL60 cells at 1000 uM after 72 hrs by MTT assay; assay type: functional; parameters: scale not given: the % may be the effect or the level left
Nucleic Acid [7] = assay: Binding affinity to Escherichia coli pUC19 DNA assessed as form 1 DNA level at 0.463 mM after 27.33 hrs by agarose gel electrophoresis; assay type: nucleic-acid assay
Nucleic Acid [8] = assay: Binding affinity to Escherichia coli pUC19 DNA assessed as form 1 DNA level at 0.320 mM after 29.33 hrs by agarose gel electrophoresis; assay type: nucleic-acid assay
Nucleic Acid [9] = assay: Binding affinity to Escherichia coli pUC19 DNA assessed as form 2 DNA level at 0.175 mM after 25.35 hrs by agarose gel electrophoresis; assay type: nucleic-acid assay
Nucleic Acid [10] = assay: Binding affinity to Escherichia coli pUC19 DNA assessed as form 1 DNA level at 0.320 mM after 23.12 hrs by agarose gel electrophoresis; assay type: nucleic-acid assay
HeLa = assay: Growth inhibition of human HeLa cells at 1000 uM after 72 hrs by MTT assay; assay type: functional; parameters: scale not given: the % may be the effect or the level left
Nucleic Acid [11] = assay: Binding affinity to Escherichia coli pUC19 DNA assessed as form 1 DNA level at 0.698 mM after 10.70 hrs by agarose gel electrophoresis; assay type: nucleic-acid assay
Nucleic Acid [12] = assay: Binding affinity to Escherichia coli pUC19 DNA assessed as form 1 DNA level at 0.130 mM after 23.52 hrs by agarose gel electrophoresis; assay type: nucleic-acid assay
Nucleic Acid [13] = assay: Binding affinity to Escherichia coli pUC19 DNA assessed as form 2 DNA level at 0.320 mM after 9.07 hrs by agarose gel electrophoresis; assay type: nucleic-acid assay
Nucleic Acid [14] = assay: Binding affinity to Escherichia coli pUC19 DNA assessed as form 1 DNA level at 0.349 mM after 28.18 hrs by agarose gel electrophoresis; assay type: nucleic-acid assay
Nucleic Acid [15] = assay: Binding affinity to Escherichia coli pUC19 DNA assessed as form 1 DNA level at 0.175 mM after 27.33 hrs by agarose gel electrophoresis; assay type: nucleic-acid assay
Nucleic Acid [16] = assay: Binding affinity to Escherichia coli pUC19 DNA assessed as form 1 DNA level at 0.320 mM after 13.07 hrs by agarose gel electrophoresis; assay type: nucleic-acid assay
Nucleic Acid [17] = assay: Binding affinity to Escherichia coli pUC19 DNA assessed as form 2 DNA level at 0.349 mM after 11.33 hrs by agarose gel electrophoresis; assay type: nucleic-acid assay
Nucleic Acid [18] = assay: Binding affinity to Escherichia coli pUC19 DNA assessed as form 2 DNA level at 0.463 mM after 23.12 hrs by agarose gel electrophoresis; assay type: nucleic-acid assay
Nucleic Acid [19] = assay: Binding affinity to Escherichia coli pUC19 DNA assessed as form 1 DNA level at 0.349 mM after 23.02 hrs by agarose gel electrophoresis; assay type: nucleic-acid assay
Nucleic Acid [20] = assay: Binding affinity to Escherichia coli pUC19 DNA assessed as form 1 DNA level at 0.349 mM after 26.15 hrs by agarose gel electrophoresis; assay type: nucleic-acid assay
Nucleic Acid [21] = assay: Binding affinity to Escherichia coli pUC19 DNA assessed as form 1 DNA level at 0.175 mM after 29.33 hrs by agarose gel electrophoresis; assay type: nucleic-acid assay
Nucleic Acid [22] = assay: Binding affinity to Escherichia coli pUC19 DNA assessed as form 2 DNA level at 0.262 mM by agarose gel electrophoresis; assay type: nucleic-acid assay
Nucleic Acid [23] = assay: Binding affinity to Escherichia coli pUC19 DNA assessed as form 2 DNA level at 0.130 mM after 11.30 hrs by agarose gel electrophoresis; assay type: nucleic-acid assay
Nucleic Acid [24] = assay: Binding affinity to Escherichia coli pUC19 DNA assessed as form 2 DNA level at 0.463 mM after 9.07 hrs by agarose gel electrophoresis; assay type: nucleic-acid assay
Nucleic Acid [25] = assay: Binding affinity to Escherichia coli pUC19 DNA assessed as form 1 DNA level at 0.698 mM after 23.80 hrs by agarose gel electrophoresis; assay type: nucleic-acid assay
HL-60 [26] = assay: Growth inhibition of human HL60 cells at 10 uM after 72 hrs by MTT assay; assay type: functional; parameters: scale not given: the % may be the effect or the level left
HL-60 [27] = assay: Growth inhibition of human HL60 cells at 100 uM after 72 hrs by MTT assay; assay type: functional; parameters: scale not given: the % may be the effect or the level left
Nucleic Acid [28] = assay: Binding affinity to Escherichia coli pUC19 DNA assessed as form 2 DNA level at 0.320 mM after 29.33 hrs by agarose gel electrophoresis; assay type: nucleic-acid assay
Nucleic Acid [29] = assay: Binding affinity to Escherichia coli pUC19 DNA assessed as form 2 DNA level at 0.175 mM after 23.12 hrs by agarose gel electrophoresis; assay type: nucleic-acid assay
Nucleic Acid [30] = assay: Binding affinity to Escherichia coli pUC19 DNA assessed as form 2 DNA level at 0.130 mM after 8.08 hrs by agarose gel electrophoresis; assay type: nucleic-acid assay
Nucleic Acid [31] = assay: Binding affinity to Escherichia coli pUC19 DNA assessed as form 1 DNA level at 0.175 mM after 31.48 hrs by agarose gel electrophoresis; assay type: nucleic-acid assay
Nucleic Acid [32] = assay: Binding affinity to Escherichia coli pUC19 DNA assessed as form 1 DNA level at 0.130 mM after 8.08 hrs by agarose gel electrophoresis; assay type: nucleic-acid assay
Nucleic Acid [33] = assay: Binding affinity to Escherichia coli pUC19 DNA assessed as form 2 DNA level at 0.262 mM after 28.18 hrs by agarose gel electrophoresis; assay type: nucleic-acid assay
Nucleic Acid [34] = assay: Binding affinity to Escherichia coli pUC19 DNA assessed as form 2 DNA level at 0.349 mM after 5.40 hrs by agarose gel electrophoresis; assay type: nucleic-acid assay
Nucleic Acid [35] = assay: Binding affinity to Escherichia coli pUC19 DNA assessed as form 1 DNA level at 0.349 mM after 24.08 hrs by agarose gel electrophoresis; assay type: nucleic-acid assay
Nucleic Acid [36] = assay: Binding affinity to Escherichia coli pUC19 DNA assessed as form 1 DNA level at 0.262 mM after 23.02 hrs by agarose gel electrophoresis; assay type: nucleic-acid assay
Nucleic Acid [37] = assay: Binding affinity to Escherichia coli pUC19 DNA assessed as form 2 DNA level at 0.698 mM after 6.42 hrs by agarose gel electrophoresis; assay type: nucleic-acid assay
Nucleic Acid [38] = assay: Binding affinity to Escherichia coli pUC19 DNA assessed as form 2 DNA level at 0.262 mM after 24.08 hrs by agarose gel electrophoresis; assay type: nucleic-acid assay
Nucleic Acid [39] = assay: Binding affinity to Escherichia coli pUC19 DNA assessed as form 1 DNA level at 0.463 mM after 25.35 hrs by agarose gel electrophoresis; assay type: nucleic-acid assay
Nucleic Acid [40] = assay: Binding affinity to Escherichia coli pUC19 DNA assessed as form 2 DNA level at 0.130 mM by agarose gel electrophoresis; assay type: nucleic-acid assay

- Activity (Nucleic Acid [1]): 21.8%
- Activity (Nucleic Acid [2]): 93.9%
- Activity (Nucleic Acid [3]): 45%
- Activity (Nucleic Acid [4]): 94.9%
- Activity (Nucleic Acid [5]): 73.4%
- Activity (Nucleic Acid [7]): 59.4%
- Activity (Nucleic Acid [8]): 59%
- Activity (Nucleic Acid [9]): 21.1%
- Activity (Nucleic Acid [10]): 68%
- Activity (Nucleic Acid [11]): 78.2%
- Activity (Nucleic Acid [12]): 74%
- Activity (Nucleic Acid [13]): 91.7%
- Activity (Nucleic Acid [14]): 65.6%
- Activity (Nucleic Acid [15]): 76%
- Activity (Nucleic Acid [16]): 84.7%
- Activity (Nucleic Acid [17]): 9.09%
- Activity (Nucleic Acid [18]): 38%
- Activity (Nucleic Acid [19]): 72.3%
- Activity (Nucleic Acid [20]): 68.5%
- Activity (Nucleic Acid [21]): 76.3%
- Activity (Nucleic Acid [22]): 2.81%
- Activity (Nucleic Acid [23]): 21.8%
- Activity (Nucleic Acid [24]): 16.6%
- Activity (Nucleic Acid [25]): 55%
- Activity (Nucleic Acid [28]): 65.2%
- Activity (Nucleic Acid [29]): 19.2%
- Activity (Nucleic Acid [30]): 16.2%
- Activity (Nucleic Acid [31]): 74%
- Activity (Nucleic Acid [32]): 83.8%
- Activity (Nucleic Acid [33]): 15.9%
- Activity (Nucleic Acid [34]): 3.73%
- Activity (Nucleic Acid [35]): 71.9%
- Activity (Nucleic Acid [36]): 90.1%
- Activity (Nucleic Acid [37]): 13.4%
- Activity (Nucleic Acid [38]): 10.5%
- Activity (Nucleic Acid [39]): 60.2%
- Activity (Nucleic Acid [40]): 11.4%
Compound: Cl.Cl.NNC1=NCC(O)CN1 (stereo unspecified)
- Activity (HL-60 [6]): 91%
- Activity (HeLa): 0%
- Activity (HL-60 [26]): 2%
- Activity (HL-60 [27]): 70%
